Measurements taken from the supplement of paper PMC10307832.

Key:
Assay in all cases: relative viability (nuclei count vs DMSO), 5 days (fraction); higher = more cells survive
[1] = compound: C1CC(C2=C(C1)C3=C(N2)C=CC(=C3)Cl)C(=O)N [Selisistat] + O=C(c1cc(Cc2n[nH]c(=O)c3ccccc23)ccc1F)N1CCN(C(=O)C2CC2)CC1 [Olaparib] (partner 8 µM)
Outline: (§1)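 Values are medians from duplicate plates. Each reflects relative viability, defined as the nuclei count of treated wells over that of vehicle wells. Lung cancer cell lines in 1536-well plates were pin-tool dosed one day after seeding with one drug alone or with a fixed anchor-drug dose plus five library-drug doses (not always all listed) in √10 steps, then fixed, stained and imaged at 4× after 5 days.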

[2] = compound: C1CC(C2=C(C1)C3=C(N2)C=CC(=C3)Cl)C(=O)N [Selisistat] + Nc1nc2[nH]cc(CCc3ccc(C(=O)N[C@@H](CCC(=O)O)C(=O)O)cc3)c2c(=O)[nH]1 [Pemetrexed] (partner 0.2 µM)
Outline: as §1

[3] = compound: c1ccc2c(CCNc3ccc(Nc4ccncc4)cc3)c[nH]c2c1 [Serdemetan] + O=C(CCCCCCC(=O)Nc1ccccc1)NO [Vorinostat] (partner 1 µM)
Outline: as §1

[4] = compound: c1ccc2c(CCNc3ccc(Nc4ccncc4)cc3)c[nH]c2c1 [Serdemetan] + CS(=O)(=O)N1CCN(Cc2cc3nc(-c4cccc5[nH]ncc45)nc(N4CCOCC4)c3s2)CC1 [Pictilisib] (partner 1 µM)
Outline: as §1

LU99A
relative viability ([1]; first compound 0.4 µM): 0.24
relative viability ([1]; first compound 1.265 µM): 0.248
relative viability ([1]; first compound 4 µM): 0.307
relative viability ([1]; first compound 12.65 µM): 0.255
relative viability ([1]; first compound 40 µM): 0.251
relative viability ([2]; first compound 0.4 µM): 0.169
relative viability ([2]; first compound 1.265 µM): 0.176
relative viability ([2]; first compound 4 µM): 0.21
relative viability ([2]; first compound 12.65 µM): 0.184
relative viability ([2]; first compound 40 µM): 0.163
relative viability ([3]; first compound 0.04 µM): 0.535
relative viability ([3]; first compound 0.1265 µM): 0.459
relative viability ([3]; first compound 0.4 µM): 0.379
relative viability ([3]; first compound 1.265 µM): 0.211
relative viability ([3]; first compound 4 µM): 0.249
relative viability ([4]; first compound 0.04 µM): 0.336
relative viability ([4]; first compound 0.1265 µM): 0.33
relative viability ([4]; first compound 0.4 µM): 0.338
relative viability ([4]; first compound 1.265 µM): 0.2
relative viability ([4]; first compound 4 µM): 0.218

LXF-289
relative viability ([1]; first compound 0.4 µM): 1.1
relative viability ([1]; first compound 1.265 µM): 1.03
relative viability ([1]; first compound 4 µM): 0.96
relative viability ([1]; first compound 12.65 µM): 0.966
relative viability ([1]; first compound 40 µM): 1.04
relative viability ([2]; first compound 0.4 µM): 0.925
relative viability ([2]; first compound 1.265 µM): 1.04
relative viability ([2]; first compound 4 µM): 0.83
relative viability ([2]; first compound 12.65 µM): 0.841
relative viability ([2]; first compound 40 µM): 0.959
relative viability ([3]; first compound 0.04 µM): 0.754
relative viability ([3]; first compound 0.1265 µM): 0.77
relative viability ([3]; first compound 0.4 µM): 0.718
relative viability ([3]; first compound 1.265 µM): 0.656
relative viability ([3]; first compound 4 µM): 0.646
relative viability ([4]; first compound 0.04 µM): 0.792
relative viability ([4]; first compound 0.1265 µM): 0.783
relative viability ([4]; first compound 0.4 µM): 0.662
relative viability ([4]; first compound 1.265 µM): 0.701
relative viability ([4]; first compound 4 µM): 0.707

NCI-H522
relative viability ([1]; first compound 0.4 µM): 0.574
relative viability ([1]; first compound 1.265 µM): 0.766
relative viability ([1]; first compound 4 µM): 0.634
relative viability ([1]; first compound 12.65 µM): 0.553
relative viability ([1]; first compound 40 µM): 0.519
relative viability ([2]; first compound 0.4 µM): 1.03
relative viability ([2]; first compound 1.265 µM): 0.646
relative viability ([2]; first compound 4 µM): 0.781
relative viability ([2]; first compound 12.65 µM): 0.94
relative viability ([2]; first compound 40 µM): 1.1
relative viability ([3]; first compound 0.04 µM): 0.982
relative viability ([3]; first compound 0.1265 µM): 0.955
relative viability ([3]; first compound 0.4 µM): 0.923
relative viability ([3]; first compound 1.265 µM): 0.831
relative viability ([3]; first compound 4 µM): 0.799

NCI-H727
relative viability ([1]; first compound 0.4 µM): 0.737
relative viability ([1]; first compound 1.265 µM): 0.635
relative viability ([1]; first compound 4 µM): 0.631
relative viability ([1]; first compound 12.65 µM): 0.655
relative viability ([1]; first compound 40 µM): 0.687
relative viability ([3]; first compound 0.04 µM): 1.3
relative viability ([3]; first compound 0.1265 µM): 1.12
relative viability ([3]; first compound 0.4 µM): 1.12
relative viability ([3]; first compound 1.265 µM): 1.28
relative viability ([3]; first compound 4 µM): 0.849
relative viability ([4]; first compound 0.04 µM): 0.327
relative viability ([4]; first compound 0.1265 µM): 0.421
relative viability ([4]; first compound 0.4 µM): 0.412
relative viability ([4]; first compound 1.265 µM): 0.346
relative viability ([4]; first compound 4 µM): 0.299

NCI-H1299
relative viability ([1]; first compound 0.4 µM): 1.04
relative viability ([1]; first compound 1.265 µM): 0.972
relative viability ([1]; first compound 4 µM): 1
relative viability ([1]; first compound 12.65 µM): 1.03
relative viability ([1]; first compound 40 µM): 1.02
relative viability ([4]; first compound 0.04 µM): 0.858
relative viability ([4]; first compound 0.1265 µM): 0.864
relative viability ([4]; first compound 0.4 µM): 0.679
relative viability ([4]; first compound 1.265 µM): 0.61
relative viability ([4]; first compound 4 µM): 0.384

NCI-H1563
relative viability ([2]; first compound 0.4 µM): 0.831
relative viability ([2]; first compound 1.265 µM): 0.857
relative viability ([2]; first compound 4 µM): 0.713
relative viability ([2]; first compound 12.65 µM): 0.664
relative viability ([2]; first compound 40 µM): 0.611
relative viability ([4]; first compound 0.04 µM): 0.613
relative viability ([4]; first compound 0.1265 µM): 0.665
relative viability ([4]; first compound 0.4 µM): 0.664
relative viability ([4]; first compound 1.265 µM): 0.549
relative viability ([4]; first compound 4 µM): 0.628

NCI-H1648
relative viability ([1]; first compound 0.4 µM): 0.878
relative viability ([1]; first compound 1.265 µM): 0.792
relative viability ([1]; first compound 12.65 µM): 0.918
relative viability ([1]; first compound 40 µM): 1.2
relative viability ([2]; first compound 0.4 µM): 0.562
relative viability ([2]; first compound 1.265 µM): 0.584
relative viability ([2]; first compound 12.65 µM): 0.599
relative viability ([2]; first compound 40 µM): 0.743
relative viability ([3]; first compound 0.1265 µM): 0.552
relative viability ([3]; first compound 0.4 µM): 0.329
relative viability ([3]; first compound 1.265 µM): 0.398
relative viability ([3]; first compound 4 µM): 0.252

NCI-H1703
relative viability ([1]; first compound 0.4 µM): 0.416
relative viability ([1]; first compound 1.265 µM): 0.425
relative viability ([1]; first compound 4 µM): 0.362
relative viability ([1]; first compound 12.65 µM): 0.42
relative viability ([1]; first compound 40 µM): 0.433
relative viability ([4]; first compound 0.04 µM): 0.213
relative viability ([4]; first compound 0.1265 µM): 0.278
relative viability ([4]; first compound 0.4 µM): 0.3
relative viability ([4]; first compound 1.265 µM): 0.271
relative viability ([4]; first compound 4 µM): 0.232

NCI-H1792
relative viability ([1]; first compound 0.4 µM): 0.47
relative viability ([1]; first compound 1.265 µM): 0.403
relative viability ([1]; first compound 12.65 µM): 0.479
relative viability ([1]; first compound 40 µM): 0.442
relative viability ([2]; first compound 0.4 µM): 0.696
relative viability ([2]; first compound 1.265 µM): 0.633
relative viability ([2]; first compound 12.65 µM): 0.913
relative viability ([2]; first compound 40 µM): 0.755
relative viability ([4]; first compound 0.04 µM): 0.278
relative viability ([4]; first compound 0.1265 µM): 0.274
relative viability ([4]; first compound 0.4 µM): 0.283
relative viability ([4]; first compound 1.265 µM): 0.242
relative viability ([4]; first compound 4 µM): 0.145

NCI-H2342
relative viability ([1]; first compound 0.4 µM): 0.4
relative viability ([1]; first compound 1.265 µM): 0.397
relative viability ([1]; first compound 4 µM): 0.468
relative viability ([1]; first compound 12.65 µM): 0.475
relative viability ([1]; first compound 40 µM): 0.461
relative viability ([2]; first compound 0.4 µM): 0.806
relative viability ([2]; first compound 1.265 µM): 0.756
relative viability ([2]; first compound 4 µM): 0.677
relative viability ([2]; first compound 12.65 µM): 0.77
relative viability ([2]; first compound 40 µM): 0.769
relative viability ([3]; first compound 0.04 µM): 0.705
relative viability ([3]; first compound 0.1265 µM): 0.731
relative viability ([3]; first compound 0.4 µM): 1.07
relative viability ([3]; first compound 1.265 µM): 0.908
relative viability ([3]; first compound 4 µM): 0.478

SW 900
relative viability ([1]; first compound 0.4 µM): 0.905
relative viability ([1]; first compound 1.265 µM): 0.914
relative viability ([1]; first compound 4 µM): 0.941
relative viability ([1]; first compound 12.65 µM): 0.833
relative viability ([1]; first compound 40 µM): 0.862
relative viability ([2]; first compound 0.4 µM): 0.468
relative viability ([2]; first compound 1.265 µM): 0.464
relative viability ([2]; first compound 4 µM): 0.461
relative viability ([2]; first compound 12.65 µM): 0.517
relative viability ([2]; first compound 40 µM): 0.46
relative viability ([3]; first compound 0.04 µM): 0.485
relative viability ([3]; first compound 0.1265 µM): 0.569
relative viability ([3]; first compound 0.4 µM): 0.53
relative viability ([3]; first compound 1.265 µM): 0.393
relative viability ([3]; first compound 4 µM): 0.455
